These results are taken from article doi:10.1101/2020.06.07.139295v2 (biorxiv, 2020).

The target of experiment [1] is T1, TTLL6 (51-502) (Mus musculus, UniProt A4Q9E8).
T1 sequence (A4Q9E8 51-502): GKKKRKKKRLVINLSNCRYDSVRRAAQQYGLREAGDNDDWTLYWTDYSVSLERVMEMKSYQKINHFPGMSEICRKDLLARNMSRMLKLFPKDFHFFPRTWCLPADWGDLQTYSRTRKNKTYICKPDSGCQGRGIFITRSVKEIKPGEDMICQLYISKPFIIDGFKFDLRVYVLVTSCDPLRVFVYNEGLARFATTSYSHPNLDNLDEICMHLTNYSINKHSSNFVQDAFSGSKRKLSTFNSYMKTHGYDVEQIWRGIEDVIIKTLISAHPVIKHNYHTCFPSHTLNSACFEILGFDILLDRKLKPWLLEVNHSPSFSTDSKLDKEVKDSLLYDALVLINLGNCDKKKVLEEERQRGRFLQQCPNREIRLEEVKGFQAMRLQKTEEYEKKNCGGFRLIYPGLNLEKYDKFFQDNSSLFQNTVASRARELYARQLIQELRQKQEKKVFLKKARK
The experiment can be described thus: [3H]-glutamate transfer to taxol-stabilized brain microtubules, filter assay. The experiment is classed as biochemical.

The target of experiment [2] is T2, TTLL6 (51-502) (Mus musculus, UniProt A4Q9E8, C179A/H362I/Q180R).
T2 sequence (A4Q9E8 51-502 C179A/Q180R/H362I): T1 sequence (A4Q9E8 51-502) with C129A, Q130R, H312I
Described as above. The experiment is classed as biochemical.

Numbering of substitutions follows the chain as printed.

For orientation: IC50 means the point on the concentration scale where inhibition reaches its midpoint. A lower IC50 goes with inhibition by little substance. `CCNC(=O)[C@H](CCP(=O)(O)CC(CCC(=O)O)C(=O)O)NC(C)=O` (mixture of isomers) [initiation analog]: the IC50 on TTLL6 (51-502) [1] amounted to 6.1 µM; against TTLL6 (51-502) [2] it was 3.5 ± 0.2 µM.

Take `CC(=O)NC(CCC(=O)O)P(=O)(O)CC(CCC(=O)O)C(=O)O` (mixture of isomers) [α-elongation analog]: the IC50 against TTLL6 (51-502) [1] was found to be 0.6 ± 0.05 µM; at TTLL6 (51-502) [2], 5.4 ± 0.8 µM.

Regarding `CC(=O)N[C@@H](CCP(=O)(O)CC(CCC(=O)O)C(=O)O)C(=O)O` (mixture of isomers) [γ-elongation analog], the IC50 is roughly 6 µM on TTLL6 (51-502) [1] and 2.5 ± 0.1 µM at TTLL6 (51-502) [2].
